Assay results taken from patent publication US6066616A, “Somatostatin analogue composition and use in treating breast cancer” (Novartis AG, priority 1987, dated 2000).

Assay: tolerated dose of octreotide
Settings: in vivo
Procedure: Thus for octreotide, GI tumours may be treated initially with 0.05 mg once or twice a day by sub-cutaneous injection. Dosage can be increased to 0.2 mg three times daily. For acromegaly daily doses of from 100 to 300 μg s.c. may be used. Octreotide is tolerated at least to 1 mg.

`C[C@@H](O)[C@@H]1NC(=O)[C@H](CCCCN)NC(=O)[C@@H](Cc2c[nH]c3ccccc23)NC(=O)[C@H](Cc2ccccc2)NC(=O)[C@@H](NC(=O)[C@H](N)Cc2ccccc2)CSSC[C@@H](C(=O)N[C@H](CO)[C@@H](C)O)NC1=O` [Octreotide, octreotide] gave a tolerated dose of at least 1 mg.
